Assay results published in US4117142A, “Disubstituted triphenylmethylmidazoles for treating mycotic infections” (Bayer Aktiengesellschaft, priority 1972, dated 1978).
Converted amounts (≈) assume the structure as drawn.

Legend:
Candida albicans [1] = experiment: Candidosis in mice, oral treatment; type: in vivo, Mice of the type SPF-C1; conditions: orally 50, 75, 100 and 150 mg/kg, one hour before and 7 hours after infection; untreated control ~5% survival
Method: Description of the experiment:
Mice of the type SPF-C1 were infected intravenously with 1-2 × 10^6 logarithmically-growing Candida cells suspended in physiological sodium chloride solution.
One hour before, and 7 hours after, the infection the animals are treated orally with 50, 75, 100 and 150 mg/kg of body weight of the preparations.
Untreated animals died of the infection 3 to 6 days after infection. The survival rate on the 6th day after infection was ~ 5% in untreated control animals.

[2] = system: Trichophyton mentagrophytes; experiment: Series dilution test in vitro, minimum inhibitory concentration, Trichophyton mentagrophytes; type: cell-based; conditions: 28° C, 24 to 96 hours
Method: (§1) Determination of the antimycotic spectrum of activity in vitro by the series dilution test.
(§2) The nutrient media used were Sabouraud's milieu d'epreuve for dermatophyties and molds and meat broth-glucose bouillon for blastomyces and biphase fungi.
(§3) The incubation temperature was 28° C and the incubation time was 24 to 96 hours.

Candida Albicans [3] = experiment: Series dilution test in vitro, minimum inhibitory concentration, Candida albicans; type: cell-based; conditions: 28° C, 24 to 96 hours
Method: as §1, §2, §3

Aspergillus niger = experiment: Series dilution test in vitro, minimum inhibitory concentration, Aspergillus niger; type: cell-based; conditions: 28° C, 24 to 96 hours
Method: as §1, §2, §3

Compound | Action on candidosis in Mice (survival on the 6th day after infection) (Candida albicans [1]) | MIC ([2]; n.s. = no added serum) [µg/mL] | MIC ([2]; w.s. = with 30% serum added) [µg/mL] | MIC (Candida Albicans [3]; n.s. = no added serum) [µg/mL] | MIC (Aspergillus niger; w.s. = with 30% serum added) [µg/mL] | MIC (Candida Albicans [3]; w.s. = with 30% serum added) [µg/mL] | MIC (Aspergillus niger; n.s. = no added serum) [µg/mL]
Cc1ccc(C)c(C(c2ccccc2)(c2ccccc2)n2ccnc2)c1 [Example 3, 1-(2,5-Dimethylphenyl-diphenyl)-methyl-imidazole] | ++++ (good action = >80% survival on the 6th day after infection) | < 1 | 40 (≈ 118 µM) | 1 (≈ 2.95 µM) | – | – | –
Clc1ccccc1C(c1ccccc1)(c1ccccc1Cl)n1ccnc1 [Example 9, 1-(2-Chlorophenyl-2'-chlorophenyl-phenyl)-methyl-imidazole] | ++++ (good action = >80% survival on the 6th day after infection) | < 1 | 4 (≈ 10.5 µM) | 1 (≈ 2.64 µM) | 10 (≈ 26.4 µM) | – | –
Clc1cccc(Cl)c1C(c1ccccc1)(c1ccccc1)n1ccnc1 [Example 7, 1-(2,6-Dichlorophenyl-diphenyl)-methyl-imidazole] | +++++ (very good action = >90% survival on the 6th day after infection) | < 1 | 4 (≈ 10.5 µM) | 1 (≈ 2.64 µM) | – | – | –
Cc1ccccc1C(c1ccccc1)(c1ccccc1C)n1ccnc1 [Example 8, 1-(2-Methylphenyl-2'-methylphenyl-phenyl)-methyl-imidazole] | +++++ (very good action = >90% survival on the 6th day after infection) | < 1 | 10 (≈ 29.5 µM) | 1 (≈ 2.95 µM) | – | – | –
Cc1cc(Cl)ccc1C(c1ccccc1)(c1ccccc1)n1ccnc1 [Example 4, 1-(2-Methyl-4-chlorophenyl-diphenyl)-methyl-imidazole] | +++++ (very good action = >90% survival on the 6th day after infection) | < 1 | 10 (≈ 27.9 µM) | 1 (≈ 2.79 µM) | – | 40 (≈ 111 µM) | –
Cc1ccc(C(c2ccccc2)(c2ccccc2)n2ccnc2)c(C)c1 [Example 2, 1-(2,4-Dimethylphenyl-diphenyl)-methyl-imidazole] | +++++ (very good action = >90% survival on the 6th day after infection) | – | – | – | – | – | –
Clc1cccc(C(c2ccccc2)(c2ccccc2)n2ccnc2)c1Cl [Example 6, 1-(2,3-Dichlorophenyl-diphenyl)-methyl-imidazole] | +++++ (very good action = >90% survival on the 6th day after infection) | – | – | – | – | – | –
Cc1cccc(C(c2ccccc2)(c2ccccc2)n2ccnc2)c1C [Example 1, 1-(2,3-dimethylphenyl-diphenyl)-methyl-imidazole] | +++++ (very good action = >90% survival on the 6th day after infection) | < 1 | 4 (≈ 11.8 µM) | 1 (≈ 2.95 µM) | 40 (≈ 118 µM) | – | 4 (≈ 11.8 µM)
